Data published in ChEMBL document CHEMBL3797052 (Eur J Med Chem, 2016).

What was measured:
[1] = Antiproliferative activity against human COLO205 cells assessed as cell growth at 10^-7 M after 48 hrs by sulforhodamine B assay; format: functional; settings: COLO 205, 48 h, read-out: Activity
[2] = Antiproliferative activity against human TK10 cells assessed as cell growth at 10^-6 M after 48 hrs by sulforhodamine B assay; format: functional; settings: TK-10, 48 h, read-out: Activity
[3] = Antiproliferative activity against human HCC2998 cells assessed as cell growth at 10^-8 M after 48 hrs by sulforhodamine B assay; format: functional; settings: HCC 2998, 48 h, read-out: Activity
[4] = Antiproliferative activity against human UACC62 cells assessed as growth inhibition after 48 hrs by sulforhodamine B assay; format: functional; settings: UACC-62, 48 h; for CC50: read-out: LC50 (the source's name)
[5] = Antiproliferative activity against human UACC62 cells assessed as cell growth at 10^-8 M after 48 hrs by sulforhodamine B assay; format: functional; settings: UACC-62, 48 h, read-out: Activity
[6] = Antiproliferative activity against human SKOV3 cells assessed as cell growth at 10^-8 M after 48 hrs by sulforhodamine B assay; format: functional; settings: SK-OV-3, 48 h, read-out: Activity
[7] = Antiproliferative activity against human SF539 cells assessed as cell growth at 10^-7 M after 48 hrs by sulforhodamine B assay; format: functional; settings: SF-539, 48 h, read-out: Activity
ACHN [8] = assay: Antiproliferative activity against human ACHN cells assessed as cell growth at 10^-6 M after 48 hrs by sulforhodamine B assay; format: functional; settings: read-out: Activity
ACHN [9] = assay: Antiproliferative activity against human ACHN cells assessed as cell growth at 10^-8 M after 48 hrs by sulforhodamine B assay; format: functional; settings: read-out: Activity
Malme-3M = assay: Antiproliferative activity against human MALME-3M cells assessed as cell growth at 10^-8 M after 48 hrs by sulforhodamine B assay; format: functional; settings: read-out: Activity
MDA-MB-231 = assay: Antiproliferative activity against human MDA-MB-231 cells assessed as cell growth at 10^-6 M after 48 hrs by sulforhodamine B assay; format: functional; settings: MDA-MB-231, 48 h, read-out: Activity
MCF7 = assay: Antiproliferative activity against human MCF7 cells assessed as cell growth at 10^-4 M after 48 hrs by sulforhodamine B assay; format: functional; settings: MCF7, 48 h, read-out: Activity
[10] = Antiproliferative activity against human UACC257 cells assessed as cell growth at 10^-6 M after 48 hrs by sulforhodamine B assay; format: functional; settings: UACC-257, 48 h, read-out: Activity
T47D = assay: Antiproliferative activity against human T47D cells assessed as cell growth at 10^-8 M after 48 hrs by sulforhodamine B assay; format: functional; settings: read-out: Activity
[11] = Antiproliferative activity against human LOXIMVI cells assessed as cell growth at 10^-8 M after 48 hrs by sulforhodamine B assay; format: functional; settings: LOX IMVI, read-out: Activity
CCRF-CEM = assay: Antiproliferative activity against human CCRF-CEM cells assessed as growth inhibition after 48 hrs by sulforhodamine B assay; format: functional; settings: for CC50: read-out: LC50 (the source's name)
M14 = assay: Antiproliferative activity against human M14 cells assessed as cell growth at 10^-7 M after 48 hrs by sulforhodamine B assay; format: functional; settings: M14, 48 h, read-out: Activity
A498 = assay: Antiproliferative activity against human A498 cells assessed as growth inhibition after 48 hrs by sulforhodamine B assay; format: functional; settings: A498, 48 h
MDA-MB-468 = assay: Antiproliferative activity against human MDA-MB-468 cells assessed as cell growth at 10^-7 M after 48 hrs by sulforhodamine B assay; format: functional; settings: MDA-MB-468, 48 h, read-out: Activity
[12] = Antiproliferative activity against human SNB75 cells assessed as cell growth at 10^-8 M after 48 hrs by sulforhodamine B assay; format: functional; settings: SNB-75, 48 h, read-out: Activity
[13] = Antiproliferative activity against human SW620 cells assessed as cell growth at 10^-7 M after 48 hrs by sulforhodamine B assay; format: functional; settings: SW-620, 48 h, read-out: Activity
SK-MEL-2 = assay: Antiproliferative activity against human SK-MEL-2 cells assessed as cell growth at 10^-4 M after 48 hrs by sulforhodamine B assay; format: functional; settings: SK-MEL-2, 48 h, read-out: Activity
[14] = target: Serine/threonine-protein kinase B-raf (Homo sapiens, UniProt P15056, V600E); assay: Inhibition of BRAF V600E mutant (unknown origin) measured after 40 mins by scintillation counting
Serine/threonine-protein kinase B-raf, sequence (P15056 2-766 V600E limits assumed): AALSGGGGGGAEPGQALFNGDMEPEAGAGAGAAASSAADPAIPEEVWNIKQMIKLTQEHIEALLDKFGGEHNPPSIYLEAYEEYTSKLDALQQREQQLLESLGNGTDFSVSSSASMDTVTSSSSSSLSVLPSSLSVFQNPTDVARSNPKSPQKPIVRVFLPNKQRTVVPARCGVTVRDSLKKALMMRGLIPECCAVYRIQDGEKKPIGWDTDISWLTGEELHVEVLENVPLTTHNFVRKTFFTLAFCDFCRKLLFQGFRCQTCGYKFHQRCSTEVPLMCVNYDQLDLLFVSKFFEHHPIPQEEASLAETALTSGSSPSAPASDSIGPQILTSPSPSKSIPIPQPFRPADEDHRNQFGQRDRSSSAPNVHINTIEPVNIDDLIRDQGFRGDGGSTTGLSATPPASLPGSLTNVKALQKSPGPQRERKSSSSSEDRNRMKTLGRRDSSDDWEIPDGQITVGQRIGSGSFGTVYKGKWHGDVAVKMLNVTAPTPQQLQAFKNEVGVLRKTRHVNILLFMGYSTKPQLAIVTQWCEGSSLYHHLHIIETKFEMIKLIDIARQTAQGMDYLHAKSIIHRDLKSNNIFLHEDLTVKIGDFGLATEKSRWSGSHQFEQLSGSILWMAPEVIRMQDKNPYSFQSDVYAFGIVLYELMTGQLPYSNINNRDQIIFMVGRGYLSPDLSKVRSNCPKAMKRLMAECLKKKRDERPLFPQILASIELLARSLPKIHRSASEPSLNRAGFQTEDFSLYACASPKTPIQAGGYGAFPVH

[15] = Antiproliferative activity against human Hs 578T cells assessed as cell growth at 10^-8 M after 48 hrs by sulforhodamine B assay; format: functional; settings: read-out: Activity
[16] = Antiproliferative activity against human SKOV3 cells assessed as cell growth at 10^-6 M after 48 hrs by sulforhodamine B assay; format: functional; settings: SK-OV-3, 48 h, read-out: Activity
[17] = Antiproliferative activity against human HOP92 cells assessed as cell growth at 10^-4 M after 48 hrs by sulforhodamine B assay; format: functional; settings: HOP-92, 48 h, read-out: Activity
U-251 = assay: Antiproliferative activity against human U251 cells assessed as cell growth at 10^-8 M after 48 hrs by sulforhodamine B assay; format: functional; settings: U-251, 48 h, read-out: Activity
SK-MEL-28 = assay: Antiproliferative activity against human SK-MEL-28 cells assessed as cell growth at 10^-4 M after 48 hrs by sulforhodamine B assay; format: functional; settings: SK-MEL-28, 48 h, read-out: Activity
NCI-H460 = assay: Antiproliferative activity against human NCI-H460 cells assessed as cell growth at 10^-8 M after 48 hrs by sulforhodamine B assay; format: functional; settings: NCI-H460, 48 h, read-out: Activity
786-0 = assay: Antiproliferative activity against human 786-0 cells assessed as cell growth at 10^-8 M after 48 hrs by sulforhodamine B assay; format: functional; settings: 786-0, 48 h, read-out: Activity
[18] = Antiproliferative activity against human BT549 cells assessed as cell growth at 10^-8 M after 48 hrs by sulforhodamine B assay; format: functional; settings: BT-549, 48 h, read-out: Activity
[19] = Antiproliferative activity against human OVCAR3 cells assessed as cell growth at 10^-4 M after 48 hrs by sulforhodamine B assay; format: functional; settings: OVCAR-3, 48 h, read-out: Activity
[20] = Antiproliferative activity against human Caki1 cells assessed as cell growth at 10^-4 M after 48 hrs by sulforhodamine B assay; format: functional; settings: CAKI-1, 48 h, read-out: Activity
HT-29 = assay: Antiproliferative activity against human HT-29 cells assessed as growth inhibition after 48 hrs by sulforhodamine B assay; format: functional; settings: HT-29, 48 h
[21] = Antiproliferative activity against human LOXIMVI cells assessed as growth inhibition after 48 hrs by sulforhodamine B assay; format: functional; settings: LOX IMVI; for CC50: read-out: LC50 (the source's name)
[22] = Antiproliferative activity against human OVCAR8 cells assessed as growth inhibition after 48 hrs by sulforhodamine B assay; format: functional; settings: OVCAR-8, 48 h

CNC(=O)c1cc(Oc2ccc3nc(NC(=O)Nc4ccc(Cl)c(Cl)c4)sc3c2)ccn1
growth at 0.1 µM [1]: 105% | growth at 1 µM [2]: 113% | growth at 0.01 µM [3]: 98% | GI50 [4]: 2.32 µM | TGI [4]: 7.76 µM | CC50 [4]: > 100 µM | growth at 0.01 µM [5]: 98% | growth at 0.01 µM [6]: 110% | growth at 0.1 µM [7]: 100% | growth at 1 µM (ACHN [8]): 88% | growth at 0.01 µM (ACHN [9]): 92% | growth at 0.01 µM (Malme-3M): 97% | growth at 1 µM (MDA-MB-231): 85% | growth at 100 µM (MCF7): 7% | growth at 1 µM [10]: 89% | growth at 0.01 µM (T47D): 102% | growth at 0.01 µM [11]: 95% | GI50 (CCRF-CEM): > 100 µM | TGI (CCRF-CEM): > 100 µM | CC50 (CCRF-CEM): > 100 µM | growth at 0.1 µM (M14): 96% | GI50 (A498): 2.93 µM | LC50 (concentration killing 50% of cells) (A498): > 100 µM | TGI (A498): 6.64 µM | growth at 0.1 µM (MDA-MB-468): 91% | growth at 0.01 µM [12]: 76% | growth at 0.1 µM [13]: 115% | growth at 100 µM (SK-MEL-2): -48% | IC50 [14]: 0.095 µM | growth at 0.01 µM [15]: 100% | growth at 1 µM [16]: 117% | growth at 100 µM [17]: -66% | growth at 0.01 µM (U-251): 98% | growth at 100 µM (SK-MEL-28): -51% | growth at 0.01 µM (NCI-H460): 104% | growth at 0.01 µM (786-0): 95% | growth at 0.01 µM [18]: 94% | growth at 100 µM [19]: -24% | growth at 100 µM [20]: -17% | GI50 (HT-29): 2.16 µM | TGI (HT-29): 4.31 µM | GI50 [21]: 1.82 µM | TGI [21]: 3.52 µM | CC50 [21]: 6.82 µM | GI50 [22]: 2.36 µM | LC50 [22]: 73.9 µM | TGI [22]: 5.27 µM

CNC(=O)c1cc(Oc2ccc3nc(NC(=O)Nc4cc(C(F)(F)F)cc(C(F)(F)F)c4)sc3c2)ccn1
growth at 0.1 µM [1]: 96% | growth at 1 µM [2]: 87% | growth at 0.01 µM [3]: 93% | GI50 [4]: 0.583 µM | TGI [4]: 2.1 µM | CC50 [4]: 5.77 µM | growth at 0.01 µM [5]: 93% | growth at 0.01 µM [6]: 87% | growth at 0.1 µM [7]: 99% | growth at 1 µM (ACHN [8]): 32% | growth at 0.01 µM (ACHN [9]): 94% | growth at 0.01 µM (Malme-3M): 96% | growth at 1 µM (MDA-MB-231): 46% | growth at 100 µM (MCF7): -55% | growth at 1 µM [10]: 59% | growth at 0.01 µM (T47D): 85% | growth at 0.01 µM [11]: 93% | GI50 (CCRF-CEM): 1.07 µM | TGI (CCRF-CEM): 5.83 µM | CC50 (CCRF-CEM): > 100 µM | growth at 0.1 µM (M14): 104% | GI50 (A498): 1.02 µM | LC50 (concentration killing 50% of cells) (A498): 5.97 µM | TGI (A498): 2.47 µM | growth at 0.1 µM (MDA-MB-468): 91% | growth at 0.01 µM [12]: 77% | growth at 0.1 µM [13]: 113% | growth at 100 µM (SK-MEL-2): -75% | IC50 [14]: 1.23 µM | growth at 0.01 µM [15]: 96% | growth at 1 µM [16]: 72% | growth at 100 µM [17]: -77% | growth at 0.01 µM (U-251): 103% | growth at 100 µM (SK-MEL-28): -70% | growth at 0.01 µM (NCI-H460): 102% | growth at 0.01 µM (786-0): 92% | growth at 0.01 µM [18]: 89% | growth at 100 µM [19]: -89% | growth at 100 µM [20]: -83% | GI50 (HT-29): 1.21 µM | LC50 (HT-29): 6.17 µM | TGI (HT-29): 2.73 µM | GI50 [21]: 1.21 µM | TGI [21]: 2.53 µM | CC50 [21]: 5.29 µM | GI50 [22]: 1.33 µM | LC50 [22]: 5.47 µM | TGI [22]: 2.69 µM

CNC(=O)c1cc(Oc2ccc3nc(NC(=O)Nc4ccc(Cl)c(C(F)(F)F)c4)sc3c2)ccn1
growth at 0.1 µM [1]: 106% | growth at 1 µM [2]: 109% | growth at 0.01 µM [3]: 107% | GI50 [4]: 2.06 µM | CC50 [4]: > 100 µM | growth at 0.01 µM [5]: 95% | growth at 0.01 µM [6]: 97% | growth at 0.1 µM [7]: 97% | growth at 1 µM (ACHN [8]): 93% | growth at 0.01 µM (ACHN [9]): 97% | growth at 0.01 µM (Malme-3M): 104% | growth at 1 µM (MDA-MB-231): 66% | growth at 1 µM [10]: 90% | growth at 0.01 µM (T47D): 90% | growth at 0.01 µM [11]: 99% | TGI (CCRF-CEM): > 100 µM | CC50 (CCRF-CEM): > 100 µM | growth at 0.1 µM (M14): 92% | GI50 (A498): 2.49 µM | LC50 (concentration killing 50% of cells) (A498): > 100 µM | TGI (A498): 12.2 µM | growth at 0.1 µM (MDA-MB-468): 85% | growth at 0.01 µM [12]: 79% | growth at 0.1 µM [13]: 101% | growth at 100 µM (SK-MEL-2): -18% | IC50 [14]: 0.131 µM | growth at 0.01 µM [15]: 92% | growth at 1 µM [16]: 90% | growth at 100 µM [17]: -64% | growth at 0.01 µM (U-251): 102% | growth at 100 µM (SK-MEL-28): 38% | growth at 0.01 µM (NCI-H460): 106% | growth at 0.01 µM (786-0): 97% | growth at 0.01 µM [18]: 95% | growth at 100 µM [19]: -14% | growth at 100 µM [20]: 17% | LC50 (HT-29): > 100 µM | TGI (HT-29): > 100 µM | GI50 [21]: 2.68 µM | TGI [21]: > 100 µM | CC50 [21]: > 100 µM | GI50 [22]: 2.34 µM | LC50 [22]: > 100 µM | TGI [22]: 5.25 µM
